# According to patent publication US4404230A, “4-Hydroxy-1,2-Benzisothiazol-3(2H)-one-1,1-dioxides and salts thereof” (priority 1980, dated 1983):
# Key:
# Assay in all cases: Test for mutagenic effects (AMES-system)
# Assay type in all cases: cell-based
# [1] = system: Salmonella typhimurium TA 100
# Procedure: (§1) Compound B was tested according to the AMES-system [Mutation Research 31, 347-364 (1975)] for mutagenic properties. In order to show the whole spectrum of induced molecular DNA-damage (base substitutions, frame-shift mutations, deletions) the auxotrophic bacterial strains Salmonella typhimurium TA 98, TA 100, TA 1535, TA 1537 and TA 1538 were used as genetic indicators.
# (§2) The tests for all microorganisms were carried out such that the effect of the test compound on a microsomal enzyme system together with the corresponding co-factors could be tested, and furthermore to determine the effect on enzyme induction. The tests were performed without an activating system and in the presence of an activating system. For the in-vitro-activation S-9 supernatants (fractions of the endoplasmatic reticulum) of normal, i.e. not pretreated rats and of rats induced by aroclor 1254 (500 mg/kg) wer used. For the S-9 induced fraction, 3 different concentrations were tested.
# (§3) Compound B was tested at concentrations of 0.25, 2.5, 5 and 10 mg/plate.
# [2] = system: Salmonella typhimurium TA 1535
# Procedure: as §1, §2, §3
# [3] = system: Salmonella typhimurium TA 1537
# Procedure: as §1, §2, §3
# [4] = system: Salmonella typhimurium TA 1538
# Procedure: as §1, §2, §3
# [5] = system: Salmonella typhimurium TA 98
# Procedure: as §1, §2, §3
# [6] = 0.25, 2.5, 5 and 10 mg/plate, with and without activating system
smiles,measurement,setting,value
O=C1NS(=O)(=O)c2cccc(O)c21.[Na],spontaneous mutation rate,[1]; [6],did not lead to an increase in the spontaneous mutation rate
same,base substitutions,[1]; TA 100,does not induce base substitutions
same,spontaneous mutation rate,[2]; [6],did not lead to an increase in the spontaneous mutation rate
same,base substitutions,[2]; TA 1535,does not induce base substitutions
same,spontaneous mutation rate,[3]; [6],did not lead to an increase in the spontaneous mutation rate
same,frame-shift mutations,[3]; TA 1537,"does not induce base substitutions (S. typhimurium TA 1535, TA 100) or frame-shift mutations"
same,spontaneous mutation rate,[4]; [6],did not lead to an increase in the spontaneous mutation rate
same,frame-shift mutations,[4]; TA 1538,"does not induce base substitutions (S. typhimurium TA 1535, TA 100) or frame-shift mutations"
same,spontaneous mutation rate,[5]; [6],did not lead to an increase in the spontaneous mutation rate
same,frame-shift mutations,[5]; TA 98,"does not induce base substitutions (S. typhimurium TA 1535, TA 100) or frame-shift mutations"
